Consider nine compounds from patent US8551937B2, “Peptide having an extending action for half-life of object peptide in plasma” (priority 2008, dated 2013).

Where a SMILES comes first, the peptide text is derived from it. Bridges are numbered along the chain shown (N, C = ends).

One data set in a line: in vivo. The conditions noted are these: male, SD, rat, iv, 10 nmol/kg. The procedure:
The experiment was carried out using rats into which polyethylene tube (PE-50 manufactured by Clay Adams) was previously inserted into thigh artery under an anesthetized condition with Nembutal. As to a test system, male SD strain rats (Nippon Charles River) of 7 weeks age were used where one group comprised 3 rats. Native CNP-22 or chimeric CNP in a dose of 10 nmol/kg was administered into tail vein of the rat and the blood before the administration and until 60 minutes after the administration was collected by a polyethylene tube inserted into the thigh artery. To the collected blood were added EDTA (manufactured by Dojin Laboratories) and aprotinin (manufactured by Bayer) as a stabilizer and an anti-coagulant, respectively and the plasma was separated therefrom by centrifugal separation. CNP immunoreactivity concentration in plasma was measured by a competitive radioimmunoassay (RIA). At that time, a rabbit polyclonal antibody (#2) which specifically recognizes the ring partial structure of the native CNP-22 was used as an antibody and, as a labeled compound, ^125I-[Tyr^0] CNP was used.

A short description of data set [1]: Motilin immunoreactivity concentration in plasma, half-life after intravenous administration (Example 8). The conditions noted are these: SD, rat, in vivo, 10 nmol/kg. An outline of the steps: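 Male SD rats (7 weeks, n=3/group) received human motilin or derivative at 10 nmol/kg i.v. via tail vein; arterial blood was sampled up to 60 min, with EDTA and aprotinin added. Plasma motilin immunoreactivity was measured by competitive RIA using a rabbit polyclonal antibody against native motilin residues 1–12 and ^125I-[Tyr^7] human motilin tracer.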

Data set [2] in a line: Motilin immunoreactivity concentration in plasma, half-life after intravenous administration (Example 6). Type of data set: in vivo, rat. The conditions noted are these: for half-life: SD, rat, plasma, 10 nmol/kg, male rats, N = 3, read-out: T½ Mean Value; for disappearance half-time extending action in vivo compared with native motilin: rats.
Method: The experiment was carried out using rats into which polyethylene tube (PE-50 manufactured by Clay Adams) was previously inserted into thigh artery under an anesthetized condition with Nembutal. As to a test system, male SD strain rats (Nippon Charles River) of 7 weeks age were used where one group comprised 3 rats. Human type motilin or a derivative thereof in a dose of 10 nmol/kg was administered into tail vein of the rat and the blood before the administration and until 60 minutes after the administration was collected by a polyethylene tube inserted into the thigh artery. To the collected blood were added EDTA (manufactured by Dojin Laboratories) and aprotinin (manufactured by Bayer) as a stabilizer and an anti-coagulant, respectively and the plasma was separated therefrom by centrifugal separation.

As to `CC[C@H](C)[C@@H]1NC(=O)[C@H](CCCNC(=N)N)NC(=O)[C@H](CC(=O)O)NC(=O)[C@H](CC(C)C)NC(=O)[C@H](CCCCN)NC(=O)[C@H](CC(C)C)NC(=O)CNC(=O)[C@H](Cc2ccccc2)NC(=O)[C@@H](N)CSSC[C@@H](C(=O)N[C@H](C(=O)N[C@@H](CCC(N)=O)C(=O)N[C@@H](CCC(N)=O)C(=O)N[C@@H](CCCNC(=N)N)C(=O)N[C@@H](CCCCN)C(=O)N[C@@H](CCC(=O)O)C(=O)N[C@@H](CO)C(=O)N[C@@H](CCCCN)C(=O)N[C@@H](CCCCN)C(=O)N2CCC[C@H]2C(=O)N2CCC[C@H]2C(=O)N[C@@H](C)C(=O)N[C@@H](CCCCN)C(=O)N[C@@H](CC(C)C)C(=O)N[C@@H](CCC(N)=O)C(=O)N2CCC[C@H]2C(=O)N[C@@H](CCCNC(=N)N)C(=O)O)C(C)C)NC(=O)CNC(=O)[C@H](CC(C)C)NC(=O)CNC(=O)[C@H](CO)NC(=O)[C@H](CCSC)NC(=O)[C@H](CO)NC(=O)CNC1=O` [Chimeric CNP (C)] (H-CFGLKLDRIGSMSGLGCVQQRKESKKPPAKLQPR-OH; disulfide 1-17; N-terminus and C-terminus assumed), the half-life in “in vivo” stood at 15 min. On to `CC[C@H](C)[C@H](NC(=O)[C@@H]1CCCN1C(=O)[C@@H](NC(=O)[C@@H](N)Cc1ccccc1)C(C)C)C(=O)N[C@@H](Cc1ccccc1)C(=O)N[C@H](C(=O)N[C@@H](Cc1ccc(O)cc1)C(=O)NCC(=O)N[C@@H](CCC(=O)O)C(=O)N[C@@H](CC(C)C)C(=O)N[C@@H](CCC(N)=O)C(=O)N[C@@H](CCCNC(=N)N)C(=O)N[C@H](C(=O)N[C@@H](CCC(N)=O)C(=O)N[C@@H](CCC(N)=O)C(=O)N[C@@H](CCCNC(=N)N)C(=O)N[C@@H](CCCCN)C(=O)N[C@@H](CCC(=O)O)C(=O)N[C@@H](CO)C(=O)N[C@@H](CCCCN)C(=O)N[C@@H](CCCCN)C(=O)N1CCC[C@H]1C(=O)N1CCC[C@H]1C(=O)N[C@@H](C)C(=O)N[C@@H](CCCCN)C(=O)N[C@@H](CC(C)C)C(=O)N[C@@H](CCC(N)=O)C(=O)N1CCC[C@H]1C(=O)N[C@@H](CCCNC(=N)N)C(=O)O)C(C)C)[C@@H](C)O` [Chimeric motilin (D)] (H-FVPIFTYGELQRVQQRKESKKPPAKLQPR-OH; N-terminus and C-terminus assumed), for which the half-life in data set [1] (male, iv) is 8.9 min; in data set [2] it was 8.9 min. In the case of `CC[C@H](C)[C@H](NC(=O)[C@@H]1CCCN1C(=O)[C@@H](NC(=O)[C@@H](N)Cc1ccccc1)C(C)C)C(=O)N[C@@H](Cc1ccccc1)C(=O)N[C@H](C(=O)N[C@@H](Cc1ccc(O)cc1)C(=O)NCC(=O)N[C@@H](CCC(=O)O)C(=O)N[C@@H](CC(C)C)C(=O)N[C@@H](CCC(N)=O)C(=O)N[C@@H](CCCNC(=N)N)C(=O)N[C@H](C(=O)N[C@@H](CCC(N)=O)C(=O)N[C@@H](CCC(N)=O)C(=O)N[C@@H](CCCNC(=N)N)C(=O)N[C@@H](CCCCN)C(=O)N[C@@H](CCC(=O)O)C(=O)N[C@@H](CO)C(=O)N[C@@H](CCCCN)C(=O)N[C@@H](CCCCN)C(=O)N1CCC[C@H]1C(=O)N1CCC[C@H]1C(=O)N[C@@H](C)C(=O)N[C@@H](CCCCN)C(=O)N[C@@H](CC(C)C)C(=O)N[C@@H](CCC(N)=O)C(=O)O)C(C)C)[C@@H](C)O` [Chimeric motilin (H)] (H-FVPIFTYGELQRVQQRKESKKPPAKLQ-OH; N-terminus and C-terminus assumed), the half-life in data set [2] stood at 10.4 min.

As to `CC[C@H](C)[C@H](NC(=O)[C@@H]1CCCN1C(=O)[C@@H](NC(=O)[C@@H](N)Cc1ccccc1)C(C)C)C(=O)N[C@@H](Cc1ccccc1)C(=O)N[C@H](C(=O)N[C@@H](Cc1ccc(O)cc1)C(=O)NCC(=O)N[C@@H](CCC(=O)O)C(=O)N[C@@H](CC(C)C)C(=O)N[C@@H](CCC(N)=O)C(=O)N[C@@H](CCCNC(=N)N)C(=O)N[C@H](C(=O)N[C@@H](CCC(N)=O)C(=O)N[C@@H](CCC(N)=O)C(=O)N[C@@H](CCCNC(=N)N)C(=O)N[C@@H](CCCCN)C(=O)N[C@@H](CCC(=O)O)C(=O)N[C@@H](CO)C(=O)N[C@@H](CCCCN)C(=O)N[C@@H](CCCCN)C(=O)N1CCC[C@H]1C(=O)N1CCC[C@H]1C(=O)N[C@@H](C)C(=O)N[C@@H](CCCCN)C(=O)O)C(C)C)[C@@H](C)O` [Chimeric motilin (I)] (H-FVPIFTYGELQRVQQRKESKKPPAK-OH; N-terminus and C-terminus assumed), in data set [2], the half-life is 5.76 min. For the compound `CC[C@H](C)[C@H](NC(=O)[C@@H]1CCCN1C(=O)[C@@H](NC(=O)[C@@H](N)Cc1ccccc1)C(C)C)C(=O)N[C@@H](Cc1ccccc1)C(=O)N[C@H](C(=O)N[C@@H](Cc1ccc(O)cc1)C(=O)NCC(=O)N[C@@H](CCC(=O)O)C(=O)N[C@@H](CC(C)C)C(=O)N[C@@H](CCC(N)=O)C(=O)N[C@@H](CCCNC(=N)N)C(=O)N[C@H](C(=O)N[C@@H](CCC(N)=O)C(=O)N[C@@H](CCC(N)=O)C(=O)N[C@@H](CCCNC(=N)N)C(=O)N[C@@H](CCCCN)C(=O)N[C@@H](CCC(=O)O)C(=O)N[C@@H](CO)C(=O)N[C@@H](CCCCN)C(=O)N[C@@H](CCCCN)C(=O)N1CCC[C@H]1C(=O)N1CCC[C@H]1C(=O)O)C(C)C)[C@@H](C)O` [Chimeric motilin (J)] (H-FVPIFTYGELQRVQQRKESKKPP-OH; N-terminus and C-terminus assumed), the half-life in data set [2] came to 6.34 min. Turning to `CC[C@H](C)[C@H](NC(=O)[C@@H]1CCCN1C(=O)[C@@H](NC(=O)[C@@H](N)Cc1ccccc1)C(C)C)C(=O)N[C@@H](Cc1ccccc1)C(=O)N[C@H](C(=O)N[C@@H](Cc1ccc(O)cc1)C(=O)NCC(=O)N[C@@H](CCC(=O)O)C(=O)N[C@@H](CC(C)C)C(=O)N[C@@H](CCC(N)=O)C(=O)N[C@@H](CCCNC(=N)N)C(=O)N[C@H](C(=O)N[C@@H](CCC(N)=O)C(=O)N[C@@H](CCC(N)=O)C(=O)N[C@@H](CCCNC(=N)N)C(=O)N[C@@H](CCCCN)C(=O)N[C@@H](CCC(=O)O)C(=O)N[C@@H](CO)C(=O)N[C@@H](CCCCN)C(=O)N[C@@H](CCCCN)C(=O)O)C(C)C)[C@@H](C)O` [Chimeric motilin (K)] (H-FVPIFTYGELQRVQQRKESKK-OH; N-terminus and C-terminus assumed), the half-life in data set [2] amounted to 6.14 min. As for `CC[C@H](C)[C@H](NC(=O)[C@@H]1CCCN1C(=O)[C@@H](NC(=O)[C@@H](N)Cc1ccccc1)C(C)C)C(=O)N[C@@H](Cc1ccccc1)C(=O)N[C@H](C(=O)N[C@@H](Cc1ccc(O)cc1)C(=O)NCC(=O)N[C@@H](CCC(=O)O)C(=O)N[C@@H](CC(C)C)C(=O)N[C@@H](CCC(N)=O)C(=O)N[C@@H](CCCNC(=N)N)C(=O)N[C@H](C(=O)N[C@@H](CCC(N)=O)C(=O)N[C@@H](CCC(N)=O)C(=O)N[C@@H](CCCNC(=N)N)C(=O)N[C@@H](CCCCN)C(=O)N[C@@H](CCC(=O)O)C(=O)N[C@@H](CO)C(=O)O)C(C)C)[C@@H](C)O` [Chimeric motilin (L), FVPIFTYGELQRVQQRKES] (H-FVPIFTYGELQRVQQRKES-OH; N-terminus and C-terminus assumed), in data set [2], the half-life came to 4.89 min and the “disappearance half-time extending action in vivo compared with native motilin” value is reported as “unable to be confirmed”. The like results for `CC[C@H](C)[C@H](NC(=O)[C@@H]1CCCN1C(=O)[C@@H](NC(=O)[C@@H](N)Cc1ccccc1)C(C)C)C(=O)N[C@@H](Cc1ccccc1)C(=O)N[C@H](C(=O)N[C@@H](Cc1ccc(O)cc1)C(=O)NCC(=O)N[C@@H](CCC(=O)O)C(=O)N[C@@H](CC(C)C)C(=O)N[C@@H](CCC(N)=O)C(=O)N[C@@H](CCCNC(=N)N)C(=O)N[C@H](C(=O)N[C@@H](CCC(N)=O)C(=O)N[C@@H](CCC(N)=O)C(=O)N[C@@H](CCCNC(=N)N)C(=O)N[C@@H](CCCCN)C(=O)O)C(C)C)[C@@H](C)O` [Chimeric motilin (M), FVPIFTYGELQRVQQRK] (H-FVPIFTYGELQRVQQRK-OH; N-terminus and C-terminus assumed) were, in that order, 2.39 min and “unable to be confirmed”. On to `CC[C@H](C)[C@H](NC(=O)[C@@H]1CCCN1C(=O)[C@@H](NC(=O)[C@@H](N)Cc1ccccc1)C(C)C)C(=O)N[C@@H](Cc1ccccc1)C(=O)N[C@H](C(=O)N[C@@H](Cc1ccc(O)cc1)C(=O)NCC(=O)N[C@@H](CCC(=O)O)C(=O)N[C@@H](CC(C)C)C(=O)N[C@@H](CCC(N)=O)C(=O)N[C@@H](CCCNC(=N)N)C(=O)N[C@@H](CCSC)C(=O)N[C@@H](CCC(N)=O)C(=O)N[C@@H](CCC(=O)O)C(=O)N[C@@H](CCCCN)C(=O)N[C@@H](CCC(=O)O)C(=O)N[C@@H](CCCNC(=N)N)C(=O)N[C@@H](CC(N)=O)C(=O)N[C@@H](CCCCN)C(=O)NCC(=O)N[C@@H](CCC(N)=O)C(=O)O)[C@@H](C)O` [Native Motilin, reference compound], for which the half-life was determined as 3.26 min in data set [1] (intravenous, male rats, N = 3, read-out: T½ Mean Value) and 3.26 min in data set [2].
